Laboratory results: patent publication US8877452B2, “Nitrite-reductase (NIRB) as potential anti-tubercular target and a method to detect the severity of tuberculosis disease” (priority 2013, dated 2014)
Read-outs that look alike come from different tables or passages of the source.

Tests used:
[1] = system: Mycobacterium tuberculosis in THP-1 macrophage; assay type: cell-based
[2] = system: Mycobacterium tuberculosis
[3] = system: THP-1 macrophages; assay: Cytotoxic effect on THP-1 macrophages, DAPI fluorescence microscopy; assay type: cell-based, Human; conditions: 100 μM; 10 days of treatment; compared with untreated control
Description: The THP1 macrophages were treated with 100 μM of p-HMB (Inhibitor) and incubated for 10 days and then stained with DAPI dye before taking pictures under a fluorescent microscope. The control cells were treated with the vehicle only under identical conditions.
THP-1 macrophage cells were grown on cover slip in 8 well microplates and washed twice with chilled methanol followed by staining with 4′,6-diamidino-2-phenylindole (DAPI) at final concentration of 300 nM. Macrophage cells were kept for 15 min at room temperature under dark condition. After incubation, cells were washed three times with distilled water and analyzed under the fluorescence microscope (Leitz Wetzlar model, Germany) at 350 nm excitation and 450 nm emission wavelengths (400×) using ‘A’ filter.
To investigate the host THP-1 macrophage cells condition due to its exposure to p-HMB inhibitor before considering its effective and specific inhibition of bacilli in macrophage infection models, fluorescence microscopic picture of THP-1 cells treated with p-HMB (100 μM) was compared with the untreated control after staining with DAPI (4′,6-diamidino-2-phenylindole). Fluorescence images were taken after 10th day of inhibitor treatment.

Row | Compound | decrease in intracellular viable bacilli count compared to control (without inhibitor) ([1]; […], cell count on 10th day PI, THP-1 macrophages) [log difference] | reduction of bacilli count ([1]; in-vitro and ex-vivo conditions (summary statement)) [log cfu] | cell count reduction compared to bacilli grown under ammonia [2] [log difference] | cytotoxic effect on macrophage (nuclear integrity, DAPI staining) [3] | decrease in intracellular viable bacilli count compared to control (without inhibitor) [1] [log difference]
1 | O=C(O)c1cc[c]([Hg][OH])cc1 [p-HMB, para-hydroxy mercuric benzoate] | ~2 | ~2 | ~2.5 | without exhibiting any cytotoxic effects | 
2 | [N-]=[N+]=[N-] [Azide] |  |  |  |  | ~1.5
3 | CS(=N)(=O)CC[C@H](N)C(=O)O (stereo partly drawn) [L-MSO, L-methionine sulfoximine] |  |  |  |  | ~2.5
